Laboratory results published in patent publication US20180133211A1, “METHODS AND MATERIALS FOR PROMOTING BONE FORMATION” (Mayo Foundation for Medical Education and Research, priority 2015, published 2018).

Key:
Assay type in all cases: cell-based, mouse
RAW 264.7 cells = assay: Cell count (proliferation/viability); details: RAW 264.7, 24 hours, doses of 3 μM and higher
Method: Cell lines were seeded in 24-well culture dishes at a density of 20,000/cm^2 and were either left untreated (controls) or treated with L- or DL-SFN at the indicated concentrations for up to 48 hours. Thereafter, cells were detached with 0.001% pronase E, and the number of viable cells was assessed with Casy cell counter (Schaerfe Systems, Reutlingen, Germany). Each experiment was performed in quadruplicate, and experiments were carried out twice. For long term experiments, cell number was determined using DNA amount as surrogate. Cell layers were washed with PBS and fixed for 20 minutes with 4% PFA. Thereafter, Hoechst 33258 dye (Polysciences, Warrington, Pa., USA) was added (1 μg/mL), and, after an incubation of 15 minutes at room temperature, the fluorescence was measured (excitation 360, emission 465 nm). The amount of DNA was estimated using a standard curve prepared from calf thymus DNA (Roche).

MC3T3-E1 cells = assay: ECM mineralization by Alizarin Red stain; details: MC3T3-E1, long-term treatment in osteogenic media
Method: Differentiation of MC3T3-E1 cells was induced with 50 μg/mL ascorbic acid (Sigma-Aldrich) and 5 mM β-glycerophosphate (Sigma-Aldrich) in medium containing 5% FBS. RAW 264.7 cells were cultured in Dulbecco's modified Eagle's medium (DMEM, Invitrogen, Carlsbad, Calif., USA) supplemented with 10% fetal bovine serum (Hyclone) and 2 mM glutamine (Gibco, Carlsbad, Calif., USA). Cells were seeded in culture dishes at a density of 20,000 cells/cm^2 and cultured overnight unless stated otherwise. Before cells were treated with compounds, the culture medium was changed.
Calvariae from 2 to 3-day-old and from 7-week old C57BL/6 mice were dissected aseptically. The calvarial bone explants were cultured in 48-well plates in α-MEM (Biochrom) containing 10% FCS (Biochrom), 50 μg/mL ascorbic acid (Sigma-Aldrich), 5 mM β-glycerophosphate (Sigma-Aldrich), and 10 μg/mL gentamicin (Sigma-Aldrich). The day after dissection, medium was changed, and a part of the explants was treated with 3 μM L- or DL-SFN for 12 days. Thereafter, one part of the calvariae were fixed for 1 hour in 4% para-formaldehyde (PFA), and mineralization was measured by Alizarin Red S stain (Sigma-Aldrich). For this purpose, Alizarin Red S dye was extracted using 10% cetylpyridinium chloride (CPC) in 10 mM sodiumphosphate (pH=7.0) for 45 minutes at room temperature. Alizarin Red S absorbance was measured at 562 nm in a multi-plate reader (Tecan, Maennedorf, Switzerland) and normalized to total protein amount measured by bicinchoninic acid assay (Thermo Fisher Scientific, Waltham, Mass., USA). From the other part of the calvariae, total RNA was extracted.

BMSCs = assay: ECM mineralization by Alizarin Red stain; details: long-term treatment in osteogenic media
Method: Mouse bone marrow mesenchymal stem cells were isolated from aseptically dissected long bones of 6-week old C57BL/6 mice (Himberg, Austria). The marrow cavities were flushed with sterile medium using a 25-gauge needle, and the culture was established in α-MEM supplemented with 10% FCS and […]. After 48 hours of culture at 5% CO2 and 37° C., the non-adherent cells were removed by gentle rinsing with PBS. At confluence, cells were harvested and seeded at a density of 3,000/cm^2 for cell experiments. For osteogenic differentiation, cells were cultured in α-MEM supplemented with 10% FBS, […], 100 nM dexamethasone, 10 mM β-glycerophosphate, and 50 μg/mL ascorbic acid with or without L- or DL-SFN. Culture medium was renewed twice a week, and cells were cultured for the periods indicated in the result section.
Calvariae from 2 to 3-day-old and from 7-week old C57BL/6 mice were dissected aseptically. […] Thereafter, one part of the calvariae were fixed for 1 hour in 4% para-formaldehyde (PFA), and mineralization was measured by Alizarin Red S stain (Sigma-Aldrich). […] Alizarin Red S absorbance was measured at 562 nm in a multi-plate reader (Tecan, Maennedorf, Switzerland) and normalized to total protein amount measured by bicinchoninic acid assay (Thermo Fisher Scientific, Waltham, Mass., USA). […]

[1] = test system: H3K27me3 marks in MC3T3 cells; assay: H3K27me3 ChIPSeq in MC3T3 cells; details: MC3T3, 5 μM GSK126, 24 hours
Method: MC3T3 (10,000 cells/cm^2) were plated in 10 cm plates in maintenance medium. Two days later, 5 μM GSK126 or vehicle were added to the cells in osteogenic medium. Twenty four hours later, cells were harvested by trypsin, and a chromatin immunoprecipitation assay (ChIP) was performed as described elsewhere (Dudakovic et al., J. Biol. Chem., 288:28783-28791 (2013)) using H3K27Me3 (17-622, Lot 2213948, Millipore) and IgG (PP64B, Lot 2056666A, Millipore) antibodies.
Sequencing libraries were prepared and massively parallel high throughput sequencing was performed on Illumina HiSeq2000 system. The alignment, quality assessment, peak calling, and visualization were performed with the HiChIP analysis pipeline (Yan et al., BMC Bioinformatics, 15:280 (2014)). Briefly, the 50 base-pair reads were aligned to the mm10 reference genome using Burrows-Wheeler Aligner. Duplicates were marked with Picard (http://broadinstitute.github.io/picard), and read-pairs without a unique alignment were filtered out using SAMTools (Li et al., Bioinformatics, 25:2078-2079 (2009)). Duplicates were filtered out using a custom script, and pairs with one or both ends mapped uniquely were retained. Enriched regions were identified using SICER (Zang et al., Bioinformatics, 25:1952-1958 (2009)).

In the case of `C[S+]([O-])CCCCN=C=S` (racemic) [DL-SFN], the “number of viable cells” value (RAW 264.7 cells) was “reduced”, the ECM mineralization (MC3T3-E1 cells) was “significantly increased” and the ECM mineralization (BMSCs) was “significantly increased”.

With `C[S+]([O-])CCCCN=C=S` [L-SFN] the “number of viable cells” value (RAW 264.7 cells) was “reduced”, the ECM mineralization (MC3T3-E1 cells) was “significantly increased” and the ECM mineralization (BMSCs) was “significantly increased”.

For `CC[C@H](C)n1cc(C)c2c(C(=O)NCc3c(C)cc(C)[nH]c3=O)cc(-c3ccc(N4CCNCC4)nc3)cc21` [GSK126, N-[(1,2-dihydro-4,6-dimethyl-2-oxo-3-pyridinyl)methyl]-3-methyl-1-[(1S)-1-methylpropyl]-6-[6-(1-piperazinyl)-3-pyridinyl]-1H-indole-4-carboxamide], the “deposition of H3K27me3 marks near transcriptional start sites (TSSs) across the genome” value [1] was “decreased”.
